Measured values reported in publication PMC9385719, “Cryo-EM structures of the channelrhodopsin ChRmine in lipid nanodiscs” (Nature Communications, 2022).

Biological target: T1, ChRmine (Rhodomonas lens, UniProt Z9FJ57BNO3)
T1 construct: residues 1-309 of R. lens cation channelrhodopsin 1; C-terminal PreScission site-linker-sfGFP-7xHis, cleaved; expressed in Sf9; no N-terminal tag, Met1 removed, Ala2 acetylated; residues 2-285 modeled; homotrimer in MSP1E3D1 nanodiscs
T1 sequence (Z9FJ57BNO3 2-309): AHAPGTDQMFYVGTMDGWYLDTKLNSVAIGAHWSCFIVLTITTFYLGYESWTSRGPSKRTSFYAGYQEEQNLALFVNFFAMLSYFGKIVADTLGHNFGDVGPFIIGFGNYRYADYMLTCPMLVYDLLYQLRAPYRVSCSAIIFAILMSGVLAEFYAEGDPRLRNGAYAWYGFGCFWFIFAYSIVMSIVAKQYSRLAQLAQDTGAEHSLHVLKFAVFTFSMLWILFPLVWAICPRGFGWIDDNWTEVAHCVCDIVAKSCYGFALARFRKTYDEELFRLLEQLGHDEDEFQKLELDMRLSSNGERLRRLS
Test: cryo-EM structure, […] Å, lipid nanodisc
Assay type: binding
Conditions: covalent; Schiff base to K257; MSP1E3D1 nanodisc with DOPE/POPS/POPC, pH 7.5; 5 µM all-trans retinal added to expression culture; small and large nanodisc forms

CC1=C(/C=C/C(C)=C/C=C/C(C)=C/C=O)C(C)(C)CCC1 [all-trans retinal]
cryo-EM structure, 2.7 Å, lipid nanodisc: (K257) on TM7 is covalently linked to a molecule of all-trans retinal through a Schiff base
